Data as given in article PMC9501232, “Novel 4-Azapregnene Derivatives as Potential Anticancer Agents: Synthesis, Antiproliferative Activity and Molecular Docking Studies” (Molecules, 2022).

How the values were obtained:
Type in all cases: cell-based, human
[1] = tested on: caspase-9 activity in T47-D cells; assay: Caspase-Glo 9 caspase-9 activity assay; conditions: 48 h, DOX 10 µM, 3g 10 and 20 µM, relative to untreated cells
Method: Promega Caspase-Glo 9 assay (Promega, Madison, WI, USA) was employed to evaluate the caspase-9 activity. T47-D cells were seeded in a 96 multiwell plate at a density of 4 × 10^4 cells/mL. After 48 h, cells were treated with the positive control, DOX, at 10 μM and with 10 and 20 μM of 3g, during 48 h. The assay was performed at the end of treatment, following the instructions provided by the manufacturer. Data are representative of at least two experiments (n = 4 in each).

LNCaP cells [2] = assay: Flow cytometry cell viability after PI staining; conditions: 50 µM
Method: Similar to the previous study, the analysis of cell viability was accomplished by flow cytometry after staining dead cells with propidium iodide (PI; Invitrogen, Carlsbad, USA). Succinctly, 1 mL of a cell suspension was seeded in 12-well culture plates (initial cell density of 5 × 10^4 cells/mL of LNCaP cells for 24 h assay and 2 × 10^4 cells/mL of the same cell line for 72 h assay) in a complete culture medium. After 48 h, the cells were treated with finasteride and 5-FU, as positive controls, and compound 3g at a concentration of 50 µM. Untreated cells were used as a negative control. At the pretended time point, the supernatant was collected and pooled with the cells harvested by trypsin treatment (each well was also washed with 400 µL of PBS before trypsin treatment). The resulting cell suspension was kept on ice and pelleted by centrifugation and resuspended with 400 µL of complete medium. Afterward, 5 µL of PI (1 mg/mL) was transferred to a FACS tube and 395 µL of the cell suspension was added to this tube. A total of 20,000 events (very small events excluded) were acquired using a FACSCalibur flow cytometer, using the FCS, SSC and FL3 (PI) channels. Acquisition and analysis were executed with CellQuestTM Pro (v. 5.1) software. […] The percentages of each region were calculated for a total of R1 + R2 + R3. […]

LNCaP cells [3] = assay: Microscopic cell morphology observation; conditions: 24 and 72 h of treatment
Method: In our previous work, 16E-arylidene-4-azaandrost-5-ene derivatives were synthesized, their antiproliferative effects were evaluated and further studies were performed with the most promising steroid in LNCaP cells. Due to the similarity of 16E-arylidene-4-azaandrostenes and these novel 21E-arylidene-4-azapregnene derivatives, identical studies in this cell line were performed, namely a flow cytometry assay and microscopic cell morphology observation. To assess the viability of LNCaP cells when exposed to steroid 3g, a flow cytometry assay after PI staining was performed. Cells were treated with 3g and 5-FU during 24 and 72 h, and then a microscopic cell observation was performed to assess the possible morphological alterations and cell density changes triggered by incubation with 3g and compare with controls (Figure 6).
Similar to the previous study, the analysis of cell viability was accomplished by flow cytometry after staining dead cells with propidium iodide (PI; Invitrogen, Carlsbad, USA). Succinctly, 1 mL of a cell suspension was seeded in 12-well culture plates (initial cell density of 5 × 10^4 cells/mL of LNCaP cells for 24 h assay and 2 × 10^4 cells/mL of the same cell line for 72 h assay) in a complete culture medium. […] The percentages of each region were calculated for a total of R1 + R2 + R3. […]

C[C@]12CC[C@H]3[C@@H](CC=C4NC(=O)CC[C@@]43C)[C@@H]1CC[C@@H]2C(=O)/C=C/c1cccnc1 [Compound 3g, 21E-[(Pyridin-3-yl)methylidene]-4-azapregn-5-ene-3,20-dione]
Caspase-9 activity [1]: significant elevation in caspase-9 activity
Number of living cells (PI non-permeant) (LNCaP cells [2]; 24 h): drastic reduction in the number of living cells
Number of viable cells (PI non-permeant) (LNCaP cells [2]; 72 h): almost absent
Cell morphology and cell density (LNCaP cells [3]): detached, forming clusters and presenting a round form
